System: 598228-144-R-J1-PDC complex spheroid viability
Assay: Anticancer human tumor 598228-144-R-J1-PDC patient-derived serous endometrial adenocarcinoma cell line growth inhibition [GQUAD]
Conditions: for IC50: curve of first compound; for viability, T/C: stronger effect = lower value
Procedure, shortened: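 Viability of tumor cells grown as complex spheroids with endothelial and stromal cells, exposed to drug combinations. Top concentration at or near clinical Cmax (else 10 microM), diluted in half-log increments.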
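Note: spheroids exposed to the agents for one week before reading.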
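Throughout, for viability, T/C: percent of vehicle DMSO control viability so 100% = untreated growth.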

## CCc1c2c(nc3ccc(O)cc13)-c1cc3c(c(=O)n1C2)COC(=O)[C@]3(O)CC + Cc1[nH]c2ccc(F)cc2c1-c1nc2c3cccnc3c3ncccc3c2[nH]1
Second compound 0.0316 µM
  IC50: 21 nM
Second compound 0.1 µM
  IC50: 13.9 nM
Second compound 0.316 µM
  IC50: 37.2 nM
Second compound 1 µM
  IC50: 2.57 nM
Second compound 3.16 µM
  IC50: < 0.999 nM
Second compound 10 µM
  IC50: 2.09 nM
Second compound 0.0316 µM, first compound 0.000999 µM
  viability, T/C: 74.7%
Second compound 0.0316 µM, first compound 0.00316 µM
  viability, T/C: 73.5%
Second compound 0.0316 µM, first compound 0.00999 µM
  viability, T/C: 53.8%
Second compound 0.0316 µM, first compound 0.0316 µM
  viability, T/C: 42.9%
Second compound 0.0316 µM, first compound 0.0999 µM
  viability, T/C: 37.9%
Second compound 0.0316 µM, first compound 0.316 µM
  viability, T/C: 13.8%
Second compound 0.1 µM, first compound 0.000999 µM
  viability, T/C: 67%
Second compound 0.1 µM, first compound 0.00316 µM
  viability, T/C: 67.6%
Second compound 0.1 µM, first compound 0.00999 µM
  viability, T/C: 55.4%
Second compound 0.1 µM, first compound 0.0316 µM
  viability, T/C: 34.9%
Second compound 0.1 µM, first compound 0.0999 µM
  viability, T/C: 31.3%
Second compound 0.1 µM, first compound 0.316 µM
  viability, T/C: 19.5%
Second compound 0.316 µM, first compound 0.000999 µM
  viability, T/C: 75.9%
Second compound 0.316 µM, first compound 0.00316 µM
  viability, T/C: 62.7%
Second compound 0.316 µM, first compound 0.00999 µM
  viability, T/C: 66.3%
Second compound 0.316 µM, first compound 0.0316 µM
  viability, T/C: 53.4%
Second compound 0.316 µM, first compound 0.0999 µM
  viability, T/C: 34.3%
Second compound 0.316 µM, first compound 0.316 µM
  viability, T/C: 21.4%
Second compound 1 µM, first compound 0.000999 µM
  viability, T/C: 55%
Second compound 1 µM, first compound 0.00316 µM
  viability, T/C: 47.3%
Second compound 1 µM, first compound 0.00999 µM
  viability, T/C: 43%
Second compound 1 µM, first compound 0.0316 µM
  viability, T/C: 37.9%
Second compound 1 µM, first compound 0.0999 µM
  viability, T/C: 27.8%
Second compound 1 µM, first compound 0.316 µM
  viability, T/C: 17.8%
Second compound 3.16 µM, first compound 0.000999 µM
  viability, T/C: 40.6%
Second compound 3.16 µM, first compound 0.00316 µM
  viability, T/C: 36.1%
Second compound 3.16 µM, first compound 0.00999 µM
  viability, T/C: 29.7%
Second compound 3.16 µM, first compound 0.0316 µM
  viability, T/C: 29.2%
Second compound 3.16 µM, first compound 0.0999 µM
  viability, T/C: 13.1%
Second compound 3.16 µM, first compound 0.316 µM
  viability, T/C: 8.4%
Second compound 10 µM, first compound 0.000999 µM
  viability, T/C: 57%
Second compound 10 µM, first compound 0.00316 µM
  viability, T/C: 45.1%
Second compound 10 µM, first compound 0.00999 µM
  viability, T/C: 38.8%
Second compound 10 µM, first compound 0.0316 µM
  viability, T/C: 29.7%
Second compound 10 µM, first compound 0.0999 µM
  viability, T/C: 24.1%
Second compound 10 µM, first compound 0.316 µM
  viability, T/C: 20.4%
